According to patent publication US20120010075A1 (priority 2009, published 2012):
Where two headings read alike, the source gives them in different places.

Columns and labels:
[1] = test system: Leptosphaeria nodorum (LEPTNO); test: In vitro fungitoxicity of hydrazones with and without copper towards Leptosphaeria nodorum (Example 26); format: cell-based; conditions: for inhibition of growth at 0.05 µg/mL: Parastagonospora nodorum, 72 h, read-out: LEPTNO % Inhn. Minus Copper Observed
Phytophthora infestans = format: in vivo, Phytophthora infestans on tomato; conditions: applied 24 h before inoculation, assessed 7 days after inoculation
[2] = compound 0.05 μg/mL, copper-minus medium, 72 h at 25° C.
[3] = compound 0.05 μg/mL, copper-plus medium (CuCl2.2H2O), 72 h at 25° C.
[4] = hydrazone 50 ppm + 50 μM CuCl2.2H2O, tomato
[5] = copper-minus medium, test compound Concn. 0.05 μg/mL, 72 h at 25° C.
[6] = copper-plus medium (CuCl2 10 μM), test compound Concn. 0.05 μg/mL, 72 h at 25° C.
[7] = hydrazone 50 ppm with 50 μM CuCl2.2H2O, tomato late blight

Compound	LEPTNO % Inhn. Minus Copper Observed [1, 2] [%]	LEPTNO % Inhn. Plus Copper Observed [1, 3] [%]	TLB % Control (Phytophthora infestans; [4]) [%]	inhibition of growth at 0.05 µg/mL [1, 2] [%]	inhibition of growth at 0.05 µg/mL [1, 5] [%]	LEPTNO % Inhn. Plus Copper Observed [1, 6] [%]	TLB % Control (Phytophthora infestans; [7]) [%]	inhibition of growth at 0.05 µg/mL [1] [%]
C/C(=N\NC(=O)c1cccc(I)c1)c1ccccc1O [Example 26]	2.1	98.4	12.3					
C/C(=N\NC(=O)c1ccc(Cl)cc1)c1cc(Br)ccc1O [Example 293]		95.7	19.0	7.9				
O=C(N/N=C/c1c(O)ccc2ccccc12)c1ccccc1 [Example 4]		94.5	67.8	4.4				
O=C(N/N=C/c1ccccc1O)c1ccc(Br)cc1 [Example 173]		97.7	12.2	8.3				
O=C(N/N=C/c1cc(Br)cc(Br)c1O)c1cccc(Cl)c1 [Example 122]		98.7	92.7	13.5				
C/C(=N\NC(=O)c1ccccc1)c1cc(Cl)ccc1O [Example 504]					1.3	97.6	94.0	
Cc1ccc(C(=O)N/N=C/c2ccccc2O)cc1 [Example 8]		92.6	59.6	0				
C/C(=N\NC(=O)c1ccccc1Br)c1ccccc1O [Example 64]		97.8	43.0	0				
O=C(N/N=C/c1cc([N+](=O)[O-])ccc1O)c1ccccc1 [Example 152]		89.1	26.0	0				
O=C(N/N=C/c1cc(Cl)cc(Cl)c1O)c1cccc(F)c1 [Example 89]		95.9	85.8	17.5				
C/C(=N\NC(=O)c1ccc(F)cc1)c1ccccc1O [Example 62]		96.3	56.1	0				
COc1cccc(C(=O)N/N=C/c2cc(Cl)ccc2O)c1 [Example 188]		96.5	74.6	7.9				
C/C(=N\NC(=O)c1ccc2ccccc2c1O)c1cc(Cl)cc(Cl)c1O [Example 480]					9.5	95.3	4.7	
O=C(N/N=C/c1cc(Cl)cc(Cl)c1O)c1ccc(F)cc1 [Example 22]		97.6	93.2	16				
CC(C)(C)c1ccc(C(=O)N/N=C/c2cc(Cl)cc(Cl)c2O)cc1 [Example 87]		98.6	69.5	8.1				
CC/C(=N\NC(=O)c1ccccc1Cl)c1ccccc1O [Example 50]		97.4	43.5	3.5				
C/C(=N\NC(=O)c1ccccc1Cl)c1ccccc1O [Example 212]		95.2	14.0	0				
C/C(=N\NC(=O)c1ccc(C)cc1)c1ccccc1O [Example 36]		98.4	33.9	5.9				
Cc1ccc(C(=O)N/N=C/c2cc([N+](=O)[O-])cc(Br)c2O)cc1 [Example 202]		96.6	49.1	2				
C/C(=N\NC(=O)c1ccccc1N)c1ccccc1O [Example 51]		97.6	4.8	0				
COc1ccccc1C(=O)N/N=C/c1cc(Cl)cc(Cl)c1O [Example 94]		92.9	37.0	0				
O=C(N/N=C/c1ccccc1O)c1ccc(Cl)cc1 [Example 2]		95.1	61.4	0				
C/C(=N\NC(=O)c1ccc([N+](=O)[O-])cc1)c1ccccc1O [Example 215]		98.6	37.0	0.5				
C/C(=N\NC(=O)c1cc(C)cc(C)c1)c1ccccc1O [Example 39]		97.9	18.6	1.3				
O=C(N/N=C/c1cc(Br)ccc1O)c1ccc2c(c1)OCO2 [Example 7]		97.2	54.6	2.6				

Compound	LEPTNO % Inhn. Minus Copper Observed [1, 2] [%]	LEPTNO % Inhn. Plus Copper Observed [1, 3] [%]	TLB % Control (Phytophthora infestans; [4]) [%]	inhibition of growth at 0.05 µg/mL [1, 2] [%]	inhibition of growth at 0.05 µg/mL [1, 5] [%]	LEPTNO % Inhn. Plus Copper Observed [1, 6] [%]	TLB % Control (Phytophthora infestans; [7]) [%]	inhibition of growth at 0.05 µg/mL [1] [%]
O=C(N/N=C/c1cc(Cl)cc([N+](=O)[O-])c1O)c1ccc(Cl)cc1 [Example 199]		98.0	56.1	4				
C/C(=N\NC(=O)c1ccc(F)cc1)c1cc(Cl)cc(Cl)c1O [Example 59]		97.5	79.7	12.8				
Cc1cccc(C(=O)N/N=C/c2cc(Br)cc(Br)c2O)c1 [Example 115]		97.4	78.2	6.1				
COc1cc(O)c(/C(C)=N/NC(=O)c2ccccc2)c(OC)c1 [Example 526]					1.8	16.2	41.0	
COc1ccc(C(=O)N/N=C/c2cc(Cl)cc(Cl)c2O)cc1OC [Example 85]		90.0	51.5	5.3				
COc1cccc(C(=O)N/N=C/c2cc(Cl)cc(Cl)c2O)c1 [Example 82]		97.4	60.6	8.4				
COc1cc(Br)cc(/C=N/NC(=O)c2ccc(Cl)cc2)c1O [Example 205]		97.2	78.9	15.4				
O=C(N/N=C/c1cc(Cl)cc(Br)c1O)c1ccccc1Cl [Example 161]		97.7	58.2	7				
CC(C)/C(=N\NC(=O)c1ccccc1)c1cc(Cl)cc(Cl)c1O [Example 588]					7.6	96.3	5.6	
COc1cc(OC)cc(C(=O)N/N=C/c2cc(Cl)cc(Cl)c2O)c1 [Example 88]		96.7	4.8	10.7				
Cc1ccccc1C(=O)N/N=C/c1cc(Cl)ccc1O [Example 157]		96.9	61.8	7.8				
C/C(=N\NC(=O)c1ccc(C(F)(F)F)cc1)c1ccccc1O [Example 11]		97.2	42.1	0.3				
COc1ccc(/C=N/NC(=O)c2ccc(Cl)cc2)c(O)c1 [Example 200]		95.0	78.9	0				
CN(C)c1ccc(C(=O)N/N=C/c2cc(Cl)cc(Cl)c2O)cc1 [Example 103]		98.1	63.2	17.9				
C/C(=N\NC(=O)c1cccc(I)c1)c1ccccc1O [Example 13]	0.0	96.2	33.3					
CC/C(=N\NC(=O)c1ccccc1)c1ccccc1O [Example 130]		98.6	50.8	1.2				
O=C(N/N=C/c1cc(Br)cc(Br)c1O)c1ccccc1F [Example 116]		98.2	88.8	8.4				
O=C(N/N=C/c1cc(Br)ccc1O)c1ccccc1Cl [Example 170]		94.5	65.5	0				
O=C(N/N=C/c1cc(Cl)ccc1O)c1ccc(C(F)(F)F)cc1 [Example 187]		97.5	92.7					20.7
CCOc1ccc(C(=O)N/N=C/c2cc(Br)cc(Br)c2O)cc1 [Example 104]		98.2	70.2	27.7				
O=C(N/N=C/c1cc(Cl)cc([N+](=O)[O-])c1O)c1ccccc1 [Example 150]		97.5	87.5	10				
COc1ccc(O)c(/C=N/NC(=O)c2ccccc2)c1 [Example 154]		70.7	36.6	3.4				
COc1cccc(C(=O)N/N=C/c2cc(Br)ccc2O)c1 [Example 185]		95.2	54.6	0				
C/C(=N\NC(=O)c1ccccc1O)c1ccccc1O [Example 213]		98.8	56.1	3.7				
O=C(N/N=C/c1cc(Br)ccc1O)c1ccccc1 [Example 148]		97.9	72.9	15.4				
